Source: ChEMBL document CHEMBL1131641, “Indolequinone antitumor agents: relationship between quinone structure and rate of metabolism by recombinant human NQO1” (Bioorg Med Chem Lett, 1998)

Legend:
[1] = species on record: Homo sapiens; assay: Metabolism (NADH oxidation) by recombinant human NAD(P)H: quinone oxidoreductase (NQO1) is evaluated.; type: ADME
[2] = system: NCI-H596; assay: Cytotoxic activity against non-small cell lung cancer cell line (NSCLC) H596 was determined by using MTT colorimetric assay.; type: functional, cell-based; conditions: Homo sapiens
[3] = system: NCI-H460; assay: Cytotoxic activity against non-small cell lung cancer cell line (NSCLC) H460 was determined by using MTT colorimetric assay.; type: functional, cell-based; conditions: Homo sapiens
[4] = Selectivity ratio against NSCLC H460 and NSCLC H596 was evaluated; type: functional; design: reference not given here

| SMILES | Metabolism [1] [µM/min/mg] | IC50 [2] [nM] | IC50 [3] [nM] | Selectivity ratio [4] |
| --- | --- | --- | --- | --- |
| Cc1c(CO)c2c(n1C)C(=O)C=C(CN1CC1)C2=O | 2.01 | > 25000 | 110 | > 220 |
| Cc1c(CO)c2c(n1C)C(=O)C=C(N1CC1)C2=O | 3.35 |  |  | 510 |
| COC1=CC(=O)c2c(cc(C)n2C)C1=O | 5.31 |  |  | 1 |
| Cc1cc2c(n1C)C(=O)C=C(N1CC1)C2=O | 11.6 |  |  | > 26 |
| Cc1c(COC(N)=O)c2c(n1C)C(=O)C=C(N1CC1)C2=O |  |  |  | 1.6 |
| COC1=CC(=O)c2c(c(COC(N)=O)c(C)n2C)C1=O |  |  |  | 0.3 |

Now from value to molecule, other results behind:

| Metabolism [1] [µM/min/mg] | SMILES | IC50 [2] [nM] | IC50 [3] [nM] | Selectivity ratio [4] |
| --- | --- | --- | --- | --- |
| 14.3 | CCOC(=O)c1c2c(n(C)c1C)C(=O)C=C(OC)C2=O |  |  |  |
| 0.49 | C/N=C1\C=C(O)c2c(c(CO)c(C)n2C)C1=O |  |  |  |
| 1.25 | COC1=CC(=O)c2c(c(CO)c(C)n2C)C1=O |  |  | 1 |
| 0.22 | Cc1c(CO)c2c(n1C)C(=O)C=C(N1CCC1)C2=O |  |  |  |
| 8.78 | COC1=CC(=O)c2c(c(C=O)c(C)n2C)C1=O |  |  |  |
| 0.1 | COCC/N=C1\C=C(O)c2c(c(CO)c(C)n2C)C1=O |  |  |  |
| 0.69 | Cc1c(CO)c2c(n1C)C(=O)C=C(N1CCOCC1)C2=O |  |  |  |
| 0.46 | Cc1c(CO)c2c(n1C)C(=O)C=C(N(C)C)C2=O |  |  |  |
